Source: ChEMBL document CHEMBL5705893, “Targeting the mitotic checkpoint for cancer therapy with NMS-P715, an inhibitor of MPS1 kinase” (Cancer Res, 2010)
pIC50: −log10 of the molar value. Active and inactive are the calls of the source. The calls are words filed in the database; no cut-off is given here.

Key:
[1] = target: RAC-alpha serine/threonine-protein kinase (Homo sapiens, UniProt P31749); assay: Inhibition of recombinant AKT1 (unknown origin)
[2] = Inhibition of recombinant CDK2/CYCA (unknown origin); set-up: species or system Homo sapiens
[3] = target: Mitogen-activated protein kinase 1 (Homo sapiens, UniProt P28482); assay: Inhibition of recombinant ERK2 (unknown origin)
Sequence of Mitogen-activated protein kinase 1 (P28482 whole entry): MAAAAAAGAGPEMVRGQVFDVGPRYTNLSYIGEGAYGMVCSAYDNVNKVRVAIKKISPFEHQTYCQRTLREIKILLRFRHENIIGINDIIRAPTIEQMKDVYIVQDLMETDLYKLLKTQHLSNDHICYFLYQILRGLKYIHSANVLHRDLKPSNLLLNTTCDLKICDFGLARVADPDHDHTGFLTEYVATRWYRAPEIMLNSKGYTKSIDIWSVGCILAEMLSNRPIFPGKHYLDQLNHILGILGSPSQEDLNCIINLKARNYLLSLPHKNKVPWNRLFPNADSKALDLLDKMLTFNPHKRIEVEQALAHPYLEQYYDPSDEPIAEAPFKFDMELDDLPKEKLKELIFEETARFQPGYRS

[4] = target: Serine/threonine-protein kinase pim-2 (Homo sapiens, UniProt Q9P1W9); assay: Inhibition of recombinant PIM2 (unknown origin)
Sequence of Serine/threonine-protein kinase pim-2 (Q9P1W9 whole entry): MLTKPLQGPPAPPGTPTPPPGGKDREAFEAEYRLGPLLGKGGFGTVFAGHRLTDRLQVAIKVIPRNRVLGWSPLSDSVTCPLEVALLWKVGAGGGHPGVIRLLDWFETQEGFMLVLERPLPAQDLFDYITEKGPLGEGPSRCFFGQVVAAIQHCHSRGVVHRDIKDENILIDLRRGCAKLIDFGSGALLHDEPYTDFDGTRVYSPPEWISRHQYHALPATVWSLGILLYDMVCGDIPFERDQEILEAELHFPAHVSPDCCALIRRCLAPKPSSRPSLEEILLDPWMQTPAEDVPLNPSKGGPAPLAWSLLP

[5] = target: Serine/threonine-protein kinase PLK1 (Homo sapiens, UniProt P53350); assay: Inhibition of recombinant PLK1 (unknown origin)
Sequence of Serine/threonine-protein kinase PLK1 (P53350 whole entry): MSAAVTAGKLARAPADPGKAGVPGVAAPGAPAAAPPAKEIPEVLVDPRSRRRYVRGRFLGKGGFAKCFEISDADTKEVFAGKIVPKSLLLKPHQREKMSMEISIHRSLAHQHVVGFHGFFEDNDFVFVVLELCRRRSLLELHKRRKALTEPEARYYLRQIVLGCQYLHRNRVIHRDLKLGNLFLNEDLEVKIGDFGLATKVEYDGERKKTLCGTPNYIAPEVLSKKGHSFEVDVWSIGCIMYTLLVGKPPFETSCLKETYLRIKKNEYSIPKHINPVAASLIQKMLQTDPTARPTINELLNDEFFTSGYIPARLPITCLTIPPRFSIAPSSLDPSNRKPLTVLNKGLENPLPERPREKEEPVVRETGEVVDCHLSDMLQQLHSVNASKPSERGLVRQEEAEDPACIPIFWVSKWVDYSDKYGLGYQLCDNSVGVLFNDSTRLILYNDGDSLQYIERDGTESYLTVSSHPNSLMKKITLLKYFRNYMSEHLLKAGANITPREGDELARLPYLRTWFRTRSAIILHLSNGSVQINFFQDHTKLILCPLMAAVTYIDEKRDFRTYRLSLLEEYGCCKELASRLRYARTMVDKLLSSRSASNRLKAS

[6] = target: Serine/threonine-protein kinase PLK3 (Homo sapiens, UniProt Q9H4B4); assay: Inhibition of recombinant PLK3 (unknown origin)
Sequence of Serine/threonine-protein kinase PLK3 (Q9H4B4 whole entry): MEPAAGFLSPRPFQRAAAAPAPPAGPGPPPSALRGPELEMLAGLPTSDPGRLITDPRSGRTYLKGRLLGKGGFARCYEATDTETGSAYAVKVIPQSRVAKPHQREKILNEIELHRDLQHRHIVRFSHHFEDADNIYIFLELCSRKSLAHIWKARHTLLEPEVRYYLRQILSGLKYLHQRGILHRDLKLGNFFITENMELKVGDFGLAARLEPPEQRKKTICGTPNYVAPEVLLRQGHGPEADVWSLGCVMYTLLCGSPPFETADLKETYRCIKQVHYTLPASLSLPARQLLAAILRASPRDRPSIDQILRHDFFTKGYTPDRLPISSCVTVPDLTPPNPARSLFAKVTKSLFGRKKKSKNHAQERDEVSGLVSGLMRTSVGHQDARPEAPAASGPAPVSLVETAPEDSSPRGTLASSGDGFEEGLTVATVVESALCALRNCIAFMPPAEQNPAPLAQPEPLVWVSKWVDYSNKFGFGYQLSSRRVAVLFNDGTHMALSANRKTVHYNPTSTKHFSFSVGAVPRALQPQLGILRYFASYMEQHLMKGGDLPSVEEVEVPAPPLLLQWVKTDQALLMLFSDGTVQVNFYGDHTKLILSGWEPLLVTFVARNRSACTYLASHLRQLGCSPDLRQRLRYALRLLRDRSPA

[7] = target: Non-receptor tyrosine-protein kinase TYK2 (Homo sapiens, UniProt P29597); assay: Inhibition of recombinant TYK 2 (unknown origin)
Sequence of Non-receptor tyrosine-protein kinase TYK2 (P29597 whole entry): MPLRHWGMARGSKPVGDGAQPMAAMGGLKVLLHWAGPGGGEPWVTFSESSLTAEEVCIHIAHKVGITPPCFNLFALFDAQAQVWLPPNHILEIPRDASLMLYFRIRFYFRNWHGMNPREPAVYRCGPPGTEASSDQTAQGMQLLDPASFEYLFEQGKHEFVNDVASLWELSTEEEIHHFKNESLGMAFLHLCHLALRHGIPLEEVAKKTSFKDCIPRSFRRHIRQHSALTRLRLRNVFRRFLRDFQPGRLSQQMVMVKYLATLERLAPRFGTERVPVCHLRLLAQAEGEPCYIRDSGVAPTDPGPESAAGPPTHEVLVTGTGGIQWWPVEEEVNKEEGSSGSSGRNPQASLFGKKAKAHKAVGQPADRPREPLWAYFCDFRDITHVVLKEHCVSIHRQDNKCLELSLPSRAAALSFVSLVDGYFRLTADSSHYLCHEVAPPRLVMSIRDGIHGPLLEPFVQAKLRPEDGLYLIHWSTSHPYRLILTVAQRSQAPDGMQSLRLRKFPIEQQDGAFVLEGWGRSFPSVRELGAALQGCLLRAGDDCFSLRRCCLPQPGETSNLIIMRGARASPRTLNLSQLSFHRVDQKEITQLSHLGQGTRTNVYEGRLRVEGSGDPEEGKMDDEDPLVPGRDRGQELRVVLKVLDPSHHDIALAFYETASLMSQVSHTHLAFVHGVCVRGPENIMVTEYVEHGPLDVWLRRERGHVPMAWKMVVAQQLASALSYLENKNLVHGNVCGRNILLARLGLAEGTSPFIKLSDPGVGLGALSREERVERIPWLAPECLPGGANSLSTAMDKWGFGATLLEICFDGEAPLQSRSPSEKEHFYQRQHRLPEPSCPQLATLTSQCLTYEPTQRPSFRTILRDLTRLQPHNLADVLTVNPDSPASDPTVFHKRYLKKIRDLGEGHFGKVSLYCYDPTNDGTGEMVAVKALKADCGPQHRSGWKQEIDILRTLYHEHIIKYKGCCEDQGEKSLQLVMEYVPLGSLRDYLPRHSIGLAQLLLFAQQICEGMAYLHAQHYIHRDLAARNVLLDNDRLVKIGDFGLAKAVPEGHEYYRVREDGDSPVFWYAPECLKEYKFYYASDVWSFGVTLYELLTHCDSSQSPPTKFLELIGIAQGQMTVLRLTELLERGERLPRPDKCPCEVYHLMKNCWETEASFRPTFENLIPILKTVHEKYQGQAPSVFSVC

SF-268 = assay: Antiproliferative activity against human SF-268 cells assessed as inhibition of cell growth incubated for 72 hrs by celltiter-glo assay; assay type: functional, cell-based; conditions: SF-268, 72 h
MDA-MB-231 = assay: Antiproliferative activity against human MDA-MB-231 cells assessed as inhibition of cell growth incubated for 72 hrs by celltiter-glo assay; assay type: functional, cell-based; conditions: MDA-MB-231, 72 h
BT-474 = assay: Antiproliferative activity against human BT-474 cells assessed as inhibition of cell growth incubated for 72 hrs by celltiter-glo assay; assay type: functional, cell-based; conditions: BT-474, 72 h
NCI/ADR-RES = assay: Antiproliferative activity against human NCI-ADR-RES cells assessed as inhibition of cell growth incubated for 72 hrs by celltiter-glo assay; assay type: functional, cell-based
Hs-578T = assay: Antiproliferative activity against human Hs-578T cells assessed as inhibition of cell growth incubated for 72 hrs by celltiter-glo assay; assay type: functional, cell-based
SW480 = assay: Antiproliferative activity against human SW480 cells assessed as inhibition of cell growth incubated for 72 hrs by celltiter-glo assay; assay type: functional, cell-based; conditions: SW480, 72 h
[8] = Antiproliferative activity against human CL-11 cells assessed as inhibition of cell growth incubated for 72 hrs by celltiter-glo assay; assay type: functional, cell-based; conditions: CL-11, 72 h
LS174T = assay: Antiproliferative activity against human LS174T cells assessed as inhibition of cell growth incubated for 72 hrs by celltiter-glo assay; assay type: functional, cell-based
HCT-116 [9] = assay: Antiproliferative activity against human HCT-116 cells assessed as inhibition of cell growth incubated for 72 hrs by celltiter-glo assay; assay type: functional, cell-based; conditions: HCT-116, 72 h
HT-29 = assay: Antiproliferative activity against human HT-29 cells assessed as inhibition of cell growth incubated for 72 hrs by celltiter-glo assay; assay type: functional, cell-based; conditions: HT-29, 72 h
SF-539 = assay: Antiproliferative activity against human SF-539 cells assessed as inhibition of cell growth incubated for 72 hrs by celltiter-glo assay; assay type: functional, cell-based; conditions: SF-539, 72 h
MOLT-4 = assay: Antiproliferative activity against human MOLT-4 cells assessed as inhibition of cell growth incubated for 72 hrs by celltiter-glo assay; assay type: functional, cell-based; conditions: MOLT-4, 72 h
MOLM-13 = assay: Antiproliferative activity against human MOLM-13 cells assessed as inhibition of cell growth incubated for 72 hrs by celltiter-glo assay; assay type: functional, cell-based; conditions: MOLM-13, 72 h
K562 = assay: Antiproliferative activity against human K562 cells assessed as inhibition of cell growth incubated for 72 hrs by celltiter-glo assay; assay type: functional, cell-based; conditions: K562, 72 h
[10] = Antiproliferative activity against human PL21 cells assessed as inhibition of cell growth incubated for 72 hrs by celltiter-glo assay; assay type: functional, cell-based; conditions: PL-21, 72 h
NCI-H522 = assay: Antiproliferative activity against human NCI-H522 cells assessed as inhibition of cell growth incubated for 72 hrs by celltiter-glo assay; assay type: functional, cell-based; conditions: NCI-H522, 72 h
NCI-H889 = assay: Antiproliferative activity against human NCI-H889 cells assessed as inhibition of cell growth incubated for 72 hrs by celltiter-glo assay; assay type: functional, cell-based; conditions: NCI-H889, 72 h
NCI-H526 = assay: Antiproliferative activity against human NCI-H526 cells assessed as inhibition of cell growth incubated for 72 hrs by celltiter-glo assay; assay type: functional, cell-based; conditions: NCI-H526, 72 h
SU-DHL-8 = assay: Antiproliferative activity against human SU-DHL-8 cells assessed as inhibition of cell growth incubated for 72 hrs by celltiter-glo assay; assay type: functional, cell-based; conditions: SU-DHL-8, 72 h
MV4-11 = assay: Antiproliferative activity against human MV4-11 cells assessed as inhibition of cell growth incubated for 72 hrs by celltiter-glo assay; assay type: functional, cell-based; conditions: MV4-11, 72 h
SK-OV-3 = assay: Antiproliferative activity against human SK-OV-3 cells assessed as inhibition of cell growth incubated for 72 hrs by celltiter-glo assay; assay type: functional, cell-based; conditions: SK-OV-3, 72 h
OVCAR-3 = assay: Antiproliferative activity against human OVCAR-3 cells assessed as inhibition of cell growth incubated for 72 hrs by celltiter-glo assay; assay type: functional, cell-based; conditions: OVCAR-3, 72 h
MIA PaCa-2 = assay: Antiproliferative activity against human MIA PaCa-2 cells assessed as inhibition of cell growth incubated for 72 hrs by celltiter-glo assay; assay type: functional, cell-based; conditions: MIA PaCa-2, 72 h
ACHN = assay: Antiproliferative activity against human ACHN cells assessed as inhibition of cell growth incubated for 72 hrs by celltiter-glo assay; assay type: functional, cell-based
UO-31 = assay: Antiproliferative activity against human UO-31 cells assessed as inhibition of cell growth incubated for 72 hrs by celltiter-glo assay; assay type: functional, cell-based; conditions: UO-31, 72 h
RO82-W-1 = assay: Antiproliferative activity against human RO82-W-1 cells assessed as inhibition of cell growth incubated for 72 hrs by celltiter-glo assay; assay type: functional, cell-based; conditions: RO82-W-1, 72 h
U2OS [11] = assay: Induction of mitotic arrest in human U2OS cells expressing YFP-alpha-tubulin assessed as reduction in mitotic-phase length at 1 micromol/L by time-lapse microscopic analysis; assay type: functional, cell-based; conditions: dose 1.0 µmol/L
U2OS [12] = assay: Induction of mitotic arrest in human U2OS cells expressing YFP alpha-tubulin assessed as chromosome misalignment in anaphase incubated for 1 hr by DAPI staining based confocal microscopic analysis; assay type: functional, cell-based
A2780 [13] = assay: Cell cycle arrest in human A2780 cells assessed as accumulation of cells at G2/M phase at 0.2 to 1 micromol/L incubated for 24 hrs by FACS/PI staining based flow cytometric analysis; assay type: functional; conditions: dose 0.2-1 µmol/L
HCT-116 [14] = assay: Cell cycle arrest in human HCT-116 cells assessed as accumulation of cells at G2/M phase at 0.2 to 1 micromol/L incubated for 48 hrs by FACS/PI staining based flow cytometric analysis; assay type: functional; conditions: dose 0.2-1 µmol/L
A2780 [15] = assay: Induction of apoptosis in human A2780 cells assessed as PARP clevage at 0.2 to 1 micromol/L incubated for 2 to 72 hrs by Western blot analysis; assay type: functional, cell-based; conditions: dose 0.2-1 µmol/L, time 2-72 hrs
[16] = Half life in Athymic nu-nu mouse at 10 mg/kg, po measured upto 24 hrs by LC-MS/MS analysis; assay type: ADME, organism-based; conditions: in vivo
[17] = AUC in Athymic nu-nu mouse at 10 mg/kg, po measured upto 24 hrs by LC-MS/MS analysis; assay type: ADME, organism-based; conditions: in vivo
[18] = target: Tyrosine-protein kinase SYK (Homo sapiens, UniProt P43405)
Description: Inhibition of recombinant SYK (unknown origin)

Sequence of RAC-alpha serine/threonine-protein kinase (P31749 whole entry): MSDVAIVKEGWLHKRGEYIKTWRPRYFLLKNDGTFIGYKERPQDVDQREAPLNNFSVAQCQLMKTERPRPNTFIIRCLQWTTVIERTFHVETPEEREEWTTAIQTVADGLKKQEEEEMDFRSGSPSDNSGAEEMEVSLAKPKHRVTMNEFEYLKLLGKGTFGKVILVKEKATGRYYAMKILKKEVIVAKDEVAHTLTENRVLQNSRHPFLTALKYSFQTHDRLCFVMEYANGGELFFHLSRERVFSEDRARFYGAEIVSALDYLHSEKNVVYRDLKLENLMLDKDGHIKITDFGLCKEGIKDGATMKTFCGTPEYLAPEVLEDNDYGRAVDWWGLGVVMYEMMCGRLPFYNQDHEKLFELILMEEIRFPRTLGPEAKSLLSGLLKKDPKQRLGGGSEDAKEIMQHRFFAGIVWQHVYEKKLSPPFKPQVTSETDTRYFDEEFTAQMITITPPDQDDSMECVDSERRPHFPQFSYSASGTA

Q: With `CCc1cccc(CC)c1NC(=O)c1nn(C)c2c1CCc1cnc(Nc3ccc(C(=O)NC4CCN(C)CC4)cc3OC(F)(F)F)nc1-2` as the compound, how does the pIC50 [1] read?
A: The pIC50 was less than 5.00.

Q: And the pIC50 [2]?
A: Its pIC50 is less than 5.00.

Q: And the pIC50 [3]?
A: Its pIC50 is less than 5.00.

Q: And the pIC50 [4]?
A: Its pIC50 is less than 5.00.

Q: What about the pIC50 [5] of the same compound?
A: The pIC50 was less than 5.00.

Q: And the pIC50 [6]?
A: Its pIC50 is less than 5.00.

Q: What about the pIC50 [7] of the same compound?
A: The pIC50 was less than 5.00.

Q: And the pIC50 (SF-268)?
A: The pIC50 was 5.86.

Q: What about the pIC50 (MDA-MB-231) of the same compound?
A: Its pIC50 is 6.05.

Q: What about the pIC50 (BT-474) of the same compound?
A: The pIC50 was 5.94.

Q: What about the pIC50 (NCI/ADR-RES) of the same compound?
A: The pIC50 was 5.60.

Q: And the pIC50 (Hs-578T)?
A: Its pIC50 is 5.18.

Q: And the pIC50 (SW480)?
A: Its pIC50 is 5.89.

Q: And the pIC50 [8]?
A: Its pIC50 is 5.88.

Q: What about the pIC50 (LS174T) of the same compound?
A: The pIC50 was 5.71.

Q: What about the pIC50 (HCT-116 [9]) of the same compound?
A: The pIC50 was 5.69.

Q: And the pIC50 (HT-29)?
A: The pIC50 was 5.41.

Q: What about the pIC50 (SF-539) of the same compound?
A: The pIC50 was 6.09.

Q: And the pIC50 (MOLT-4)?
A: Its pIC50 is 5.98.

Q: And the pIC50 (MOLM-13)?
A: Its pIC50 is 5.98.

Q: And the pIC50 (K562)?
A: The pIC50 was 5.57.

Q: What about the pIC50 [10] of the same compound?
A: Its pIC50 is 5.53.

Q: What about the pIC50 (NCI-H522) of the same compound?
A: Its pIC50 is 5.92.

Q: What about the pIC50 (NCI-H889) of the same compound?
A: The pIC50 was 5.90.

Q: And the pIC50 (NCI-H526)?
A: The pIC50 was 5.66.

Q: What about the pIC50 (SU-DHL-8) of the same compound?
A: Its pIC50 is 6.08.

Q: What about the pIC50 (MV4-11) of the same compound?
A: Its pIC50 is 5.94.

Q: And the pIC50 (SK-OV-3)?
A: Its pIC50 is 5.37.

Q: And the pIC50 (OVCAR-3)?
A: Its pIC50 is 5.21.

Q: And the pIC50 (MIA PaCa-2)?
A: Its pIC50 is 5.59.

Q: And the pIC50 (ACHN)?
A: Its pIC50 is 7.82.

Q: What about the pIC50 (UO-31) of the same compound?
A: The pIC50 was 5.44.

Q: What about the pIC50 (RO82-W-1) of the same compound?
A: Its pIC50 is 5.03.

Q: And the Activity (U2OS [11])?
A: The Activity was “Active”.

Q: And the Activity (U2OS [12])?
A: Its Activity is “Active”.

Q: And the Activity (A2780 [13])?
A: Its Activity is “Active”.

Q: What about the Activity (HCT-116 [14]) of the same compound?
A: Its Activity is “Active”.

Q: What about the Activity (A2780 [15]) of the same compound?
A: The Activity was “Active”.

Q: What about the half-life [16] of the same compound?
A: Its half-life is 481 min.

Q: What about the AUC at 24 h [17] of the same compound?
A: The AUC at 24 h was 8.66 µM·h.

Q: And the pIC50 [18]?
A: Its pIC50 is less than 5.00.
